Data from US10457702B2, “Dicaffeoyl spermidine cyclized derivatives and use thereof” (Jinan University, priority 2016, dated 2019).

What was measured:
[1] = Oxygen radical absorbance capacity (ORAC) antioxidant experiment; settings: for ORAC value (μmol TE/μmol): relative to Trolox standard, AAPH, fluorescein
Description: The antioxidant activity of the compounds was evaluated by using the oxygen radical absorbance capacity (ORAC) experiment. The detailed experimental procedure is as follows. 0.248 g of AAPH (2,2′-azobisisobutylamidine dihydrochloride) was added to a 50 mL phosphate buffer system to formulate a 18.3 mM AAPH stock solution. 20 μL of phosphate buffer, 20 μL solution of sample to be tested or standard substance Trolox (concentration of 6.25 μM) and 20 μL of fluorescent substance of disodium fluorescein (FL, concentration of 630 nM) were added into the wells of a 96-well plate in order. Then, 140 μL of AAPH (concentration of 18.3 mM) was quickly added to the wells of a 96-well plate, which was immediately placed in a GENios […] microplate reader manufactured by Tecan, Switzerland, the excitation wavelength was set as 485 nm and the emission wavelength was set as 527 nm. The fluorescence intensity was measured every 2 minutes and recorded for a total of 100 min.
The antioxidant capacity of the active substance is calculated as follows: Relative ORAC value=(AUCsample−AUCblank)/(AUCtrolox−AUCblank). Wherein, AUCsample refers to the integral area under the fluorescence decay curve of the test sample, AUCtrolox refers to the integral area under the fluorescence decay curve of the standard substance Trolox, and AUCblank refers to the integral area under the fluorescence decay curve when the test sample or the standard substance Trolox is not added.

[2] = test system: Senile dementia fruit fly (Aβ42, P35*H29.3); assay: Learning and memory (olfactory short-term memory, T-Maze performance index) of Senile dementia fruit fly; format: in vivo; settings: for improvement of learning and memory function of Senile dementia fruit fly (in words): 100 μM, compared with untreated disease flies and positive control drug memantine; for PI (100 μM) learning and memory performance index: Senile dementia disease flies (P35*H29.3), drug administered at 100 μM, n = 6
From the text: (1) Cultivation of Senile Dementia Fruit Fly W^1118 (isoCJI), as a background fruit fly of control group in the experiment, was abbreviated as “2U”. The fruit flies that successfully introduced with the pathogenic Aβ42 protein were (UAS-Aβ42; abbreviated as “H29.3”). This strain of fruit flies was hybridized with the fruit fly expressing the Gal4 promoter in whole brain, and the fruit fly strain carrying elav-GAL4^[…] (P35) and Aβ42 was obtained. (2) Administration of Senile Dementia Fruit Fly Three groups of drug-free control of healthy fruit fly, drug-free control of disease fruit fly, and dose disease fruit fly were set in the experiment. All parents of tested fruit flies were housed and propagated at a constant temperature of 24° C. and a humidity of 42% RH (Relative humidity). On the first day after the emergence of the fruit flies, the fruit flies of control group and disease group, as well as the fruit flies to be administered were anesthetized with carbon dioxide, and the fruit flies of the correct characters were selected into the glass tube containing food. During the dosing period, all test fruit flies were kept in an incubator with a constant temperature of 28° C. and a constant humidity of 42% to ensure the drug taking efficiency of the fruit flies. Each day the fruit flies were administered for 4 hours, and the drug was administered from the second day after the fruit flies were selected until the 8th day. The drugs administered were prepared on the second day after the fruit fly selection, and were administered to the fruit flies on the day of preparation. The drugs were dissolved by 100% DMSO to a concentration of 10 mM. When preparing the working solution, the 10 mM stock solution was diluted to 100 μM with 4% sucrose. In addition, the fruit flies of control group were fed sucrose water containing 1% DMSO. For each Performance Index, two tubes of fruit fly groups are required, each tube containing about 100 fruit flies. Experiments were conducted in a light proof behavior room with constant temperature of 25 ° C., constant humidity of 70%. The method can be found in references ^[1-3]. 1) During the training stage, about 100 flies were loaded into a training tube provided with a copper mesh cross electrode. Two kinds of odors of octanol (OCT) and methylcyclohexanol (MCH) were successively introduced for each 60 s with an intervals for 45 s of fresh air. 60 V pulsed electrical shock stimulation (US, pulse duration 1.5 s, interval 3.5 s) was applied to the fruit flies while introducing the 1st odor. No electrical shock was applied when the second odor (CS-) was introduced. Thereby one training cycle was completed. 2) In the transient memory (learning) ability test, the fruit flies that completed one training cycle were immediately transferred to the selection point of T-Maze, while CS+ and CS- were introduced from the opposite two directions. After two minutes of selection, the fruit flies on both sides were collected separately and counted after anesthesia or sacrifice. […] When performing the activity test, the short-term memory deficit tests for the olfactory sensation of the non-administered healthy flies with the same genetic background (2U*H29.3), non-administered Senile dementia disease flies (P35*[…].3), and test drug administered Senile dementia disease flies were also conducted, and their total learning and memory performance indexes (PIs) was calculated respectively. […]

Row | Structure (SMILES) | ORAC value (μmol TE/μmol) [1] [μmol TE/μmol] | improvement of learning and memory function of Senile dementia fruit fly (in words) [2] | PI (100 μM) learning and memory performance index [2] | antioxidant activity (in words) ([1]; ORAC, compared with positive control EGCG)
1 | O=C(O[C@@H]1Cc2c(O)cc(O)cc2O[C@@H]1c1cc(O)c(O)c(O)c1)c1cc(O)c(O)c(O)c1 [EGCG, epigallocatechin gallate, reference compound] | 1.48 ± 0.02 | – | – | –
2 | O=C1/C=C/c2ccc(O)c(c2)Oc2cc(O[C@@H]3O[C@H](CO)[C@@H](O)[C@H](O[C@@H]4O[C@H](CO)[C@@H](O)[C@H](O)[C@H]4O)[C@H]3O)c(O)cc2CCC(=O)NCCCCNCCCN1 [Formula III] | 0.96 ± 0.03 | superior to the positive control drug | 45.9 ± 1.9*** | –
3 | O=C1/C=C/c2ccc(O)c(c2)Oc2cc(O[C@@H]3O[C@H](CO)[C@@H](O)[C@H](O)[C@H]3O)c(O)cc2CCC(=O)NCCCCNCCCN1 [Formula II] | 1.48 ± 0.01 | significantly improve the learning and memory function | 37.1 ± 2.2** | comparable to that of the positive control drug
4 | CC12CC3CC(C)(C1)CC(N)(C3)C2 [Memantine, memantine, reference compound] | – | – | 44.2 ± 2.1*** | –
